Experimental data published in patent publication US9890194B2, “Epitope and its use” (W[…] BADAŃEIT+ SP. Z O.O., priority 2012, dated 2018).

Assays:
[1] = system: antibodies present in umbilical blood sera 1H-9H (IgG); assay: ELISA of peptides synthesized on HPM-pins with a mixture of 9 umbilical blood sera (1H-9H); type: binding, human; conditions: mixture of umbilical sera 1H-9H; 29 overlapping twelve amino-acid peptides of Table 1 on HPM-pins
From the text: Peptides representing the bioinformatically predicted regions were synthesized using an NCP kit with 96 hydroxypropylmethacrylate (HPM) pins (MIMOTOPES, Clayton, Victoria, Australia) according to the manufacturer's specifications (Carter, J.M. (1994) An epitope mapping of a protein using the Geysen (PEPSCAN) procedure. Methods Mol Biol 36: 207-223). As the sixth, control, peptide we synthesised a fragment corresponding to the N-terminal region of ompC (AEVYNKDGNKLD-pin (SEQ ID NO: 12)).
After the completed synthesis, we performed initial reactivity tests for the individual peptides, using a standard ELISA test. The ELISA was performed in a mixture of 9 different umbilical blood sera (1H-9H) according to the following scheme: • a. Pin equilibration in TBS-T. • b. Blocking of free sites on the pins using 1% BSA in TBS-T • c. Incubation with umbilical sera at a dilution of 1:500 in a solution of 1% BSA in TBS-T buffer • d. Rinsing with TBS-T buffer • e. Incubation with secondary antibodies, conjugated Anti-Human IgG (Fc)-AP (Promega) • f. Rinsing with TBS-T • g. Reaction of AP with the substrate pNPP (p-Nitrophenyl Phosphate, Sigma) and absorbance measurement at 405 nm • h. Dissociation of proteins/antibodies from peptides synthesized on HPM-pins. […]

[2] = system: antibodies present in human umbilical blood sera; assay: Immunological activity of truncated and substituted peptides derived from RYDERY with umbilical serum; type: binding; conditions: FIG. 4
From the text: Unexpectedly it was shown that the immunological activity of the RYDERY peptide (SEQ ID NO: 2) is not affected by the removal of amino-acids in positions P+1 and P+2, nor in P−1, […]. The removal of amino-acids in positions P1 or P6, and in the subsequent positions (P2, P3 or P5, P4) caused a complete loss of activity. Likewise, a loss of immunological activity was caused by an exchange of residues at positions P1, P2 and P5. The latter amino-acids must remain unchanged in the final form of the peptide vaccine. Positions P3, P4 and P6 are less restrictive. In this case native amino-acids may be substituted by a series of other residues without any significant loss of immunological activity (FIG. 4). This property of the epitope facilitates the synthesis of a peptide less susceptible to enzymatic hydrolysis, and a higher antigenicity.
Furthermore, it was unexpectedly shown that an alteration of amino-acid D or E for Q yields an increased reactivity with umbilical serum (FIG. 5).

RYDERY
binding of antibodies in umbilical sera by loop V peptides [1]: shortest active portion of the epitope

YDERY
immunological activity of peptides derived from RYDERY (removal or exchange of residues) [2]: no activity
